Reference: patent US6635265B1, “Materials and methods useful for the control of insect larvae” (University of Florida Research Foundation, Inc., priority 1999, dated 2003)
Square brackets hold non-standard residues; d marks the D form. Ends that are not written are not given here.

Key:
mosquito larvae = assay: Feeding TMOF and its analogue peptides to mosquito larvae (LD50); format: in vivo, Aedes aegypti; conditions: 100 μl microtiter plates, 7 days, diet of autoclaved yeast (1 mg/ml)
Excerpt: TMOF can traverse the gut epithelium, enter the hemolymph and bind a gut receptor (Borovsky, D. and F. Mahmood (1995) “Feeding the mosquito Aedes aegypti with TMOF and its analogs; effect on trypsin biosynthesis and egg development,” Regulatory Peptides 57:273-281.; Borovsky, D., C. A. Powell, J. K. Nayar, J. E. Blalock, and T. K. Hayes (1994) “Characterization and localization of mosquito-gut receptors for trypsin modulating oostatic factor using complementary peptide immunochemistry” FASEB J. 8:350-355.). […] This characteristic permits testing of TMOF and its analogs by feeding them to mosquito and other pest larvae. To determine whether truncated TMOF peptides have an effect on larval growth and development, a series of peptides were synthesized and tested by feeding them to mosquito larvae at concentrations of 0.5 to 5.0 mg/ml (Table 1). Individual, newly hatched Aedes aegypti larvae were maintained in separate microtiter wells on a diet of autoclaved yeast (1 mg/ml). The diet was supplemented with TMOF peptides (Table 1). An identical number of larvae which were maintained on yeast served as a control. […] All control groups survived and larval growth and development was normal. Since larvae swallow only a small portion of the yeast particles that adsorbed the peptides, it is assumed that approximately 1 to 20 ng are taken orally at the high concentrations.

trypsin biosynthesis = assay: Injecting TMOF-R analogues into second instar Heliothis virescens: trypsin biosynthesis (BApNA); format: in vivo; conditions: second instar larvae, 24 hours after injection
Description: TMOF analogues (5 to 8 amino acids in length, and polymers of these analogues) in which Arg was added at the C-terminus were evaluated to determine their effect on larval growth and development. A series of analogues were synthesized and tested by feeding them to mosquito larvae at concentrations of (0.5 to 5.0 mg/ml; Table 4). Concentrations of 2.0 to 0.065 mg/ml were used to feed mosquito larvae and calculate the Lethal Dose at 50% mortality (LD50; Table 4) of the TMOF analogues. […] In both cases larval death and trypsin biosynthesis inhibition was noted (Table 4 and 5). […] The advantage of using short analogues connected by Arg is that they can be digested in the gut into short TMOF analogues that can penetrate the midgut much faster than longer analogues.
Individual second instar larvae of H. virescens were injected with TMOF-R analogues (10 to 0.25 μg per larva) and maintained in separate plastic cups on artificial diet. Twenty-four hours after the injections 3 groups of larvae (3 per group) were assayed for trypsin biosynthesis using BApNA (trypsin specific substrate; Table 5).

| Substance | LD50 mM ± S.E.M. (mosquito larvae) | further results |
| --- | --- | --- |
| (D)YDP ([dY]-Asp-Pro) [43] | 3 0.51 ± 0.05 mM |  |
| (D)YDPAP ([dY]DPAP) [46] | 3 0.56 ± 0.03 mM |  |
| (DPAR)4 |  | Inhibition (% ± S.E.M.) of trypsin biosynthesis (trypsin biosynthesis; 0.5 μg/injection): 3 ± 0.3%; Inhibition (% ± S.E.M.) of trypsin biosynthesis (trypsin biosynthesis; 1 μg/injection): 35 ± 7%; Inhibition (% ± S.E.M.) of trypsin biosynthesis (trypsin biosynthesis; 10 μg/injection): 58 ± 36% |
| AAP (TMOF peptide) [16] | 3 1.08 ± 0.07 mM |  |
| ADP (TMOF peptide) [17] | 3 > 6.6 mM |  |
| ADPAP (TMOF peptide) [18] | 4 2.0 ± 0.36 mM |  |
| APA (TMOF peptide) [19] | 3 1.0 ± 0.07 mM |  |
| DAA (TMOF peptide) [20] | 3 0.91 ± 0.06 mM |  |
| DPA | 3 0.4 ± 0.03 mM |  |
| DPAR (TMOF-R analogue peptide) [60] |  | Inhibition (% ± S.E.M.) of trypsin biosynthesis (trypsin biosynthesis; 1 μg/injection): 17 ± 2%; Inhibition (% ± S.E.M.) of trypsin biosynthesis (trypsin biosynthesis; 10 μg/injection): 100% |
| FAP (TMOF peptide) [25] | 3 3.8 ± 0.23 mM |  |
| FDP (TMOF peptide) [26] | 3 1.98 ± 0.6 mM |  |
| FDPAP (TMOF peptide) [27] | 3 0.37 ± 0.15 mM |  |
| FSP (TMOF peptide) [28] | 3 2.3 ± 0.13 mM |  |
| MPDYP5 (MPDYPPPPP; TMOF peptide) [29] | 3 > 3.0 mM |  |
| PAA (TMOF peptide) [30] | 3 2.4 ± 0.34 mM |  |
| PAP (TMOF peptide) [31] | 3 3.17 ± 0.14 mM |  |
| Y(D)DP (Tyr-[dD]-Pro) [32] | 3 0.28 ± 0.01 mM |  |
| YAP (TMOF peptide) [34] | 3 2.3 ± 0.5 mM |  |

| Substance | LD50 mM ± S.E.M. (mosquito larvae) | further results |
| --- | --- | --- |
| YAPAP (TMOF peptide) [62] | 3 0.54 ± 0.13 mM |  |
| YDA (TMOF peptide) [36] | 3 1.6 ± 0.13 mM |  |
| YDF (TMOF peptide) [38] | 3 0.97 ± 0.11 mM |  |
| YDG (TMOF peptide) [40] | 3 0.95 ± 0.11 mM |  |
| YDLAP (TMOF peptide) [41] | 3 0.6 ± 0.05 mM |  |
| YDPAA (TMOF peptide) [55] | 3 1.6 ± 0.13 mM |  |
| YDPAF (TMOF peptide) [44] | 3 0.33 ± 0.2 mM |  |
| YDPAFR (TMOF-R analogue peptide) [58] |  | Inhibition (% ± S.E.M.) of trypsin biosynthesis (trypsin biosynthesis; 10 μg/injection): 0 ± 0% |
| YDPAL (TMOF peptide) [45] | 3 0.52 ± 0.03 mM |  |
| YDPAP (TMOF peptide) [11] | 3 1.64 ± 0.03 mM |  |
| YDPAPR (TMOF-R analogue peptide) [57] |  | Inhibition (% ± S.E.M.) of trypsin biosynthesis (trypsin biosynthesis; 0.25 μg/injection): 11 ± 1%; Inhibition (% ± S.E.M.) of trypsin biosynthesis (trypsin biosynthesis; 0.5 μg/injection): 14 ± 1%; Inhibition (% ± S.E.M.) of trypsin biosynthesis (trypsin biosynthesis; 1 μg/injection): 31.5 ± 2%; Inhibition (% ± S.E.M.) of trypsin biosynthesis (trypsin biosynthesis; 10 μg/injection): 53 ± 25% |
| YDPAR (TMOF-R analogue peptide) [59] |  | Inhibition (% ± S.E.M.) of trypsin biosynthesis (trypsin biosynthesis; 0.5 μg/injection): 1 ± 0.07%; Inhibition (% ± S.E.M.) of trypsin biosynthesis (trypsin biosynthesis; 1 μg/injection): 39 ± 2%; Inhibition (% ± S.E.M.) of trypsin biosynthesis (trypsin biosynthesis; 10 μg/injection): 33.5 ± 9% |
| YDPFP (TMOF peptide) [47] | 4 1.7 ± 0.4 mM |  |
| YDPLP (TMOF peptide) [49] | 3 1.5 ± 0.04 mM |  |
| YEPAP (TMOF peptide) [50] | 3 0.35 ± 0.02 mM |  |
| YFPAP (TMOF peptide) [51] | 3 0.64 ± 0.03 mM |  |
| YNPAP (TMOF peptide) [52] | 3 0.55 ± 0.03 mM |  |
| YSF (TMOF peptide) [53] | 3 1.08 ± 0.12 mM |  |
